Experimental data published in patent US20260217767A1, “NOVEL A4B7 THIOETHER PEPTIDE DIMER ANTAGONISTS” (Protagonist Therapeutics, Inc., priority 2014, published 2026).
*1 amine or outer side, *2 acyl side, *3 side chain or, on linkers, in order; H or OH if unused. Where a SMILES comes first, the peptide text is derived from it. Bridges are numbered along the chain shown (N, C = ends). Roman numbers before positions name the chains, in order. [ ]: non-standard residue; d: D form. Diglycolyl = O=C(COCC(=O)[*:2])[*:1]; NMeR = CN[C@@H](CCCNC(=N)N)C(=O)O; X1 = O=C(c1ccccc1C[*:2])[*:1]; Pen = CC(C)(S)[C@H](N)C(=O)O

Target: T1, rh integrin α4β7 (Homo sapiens, UniProt P13612+P26010)
T1 construct: purchased R&D Systems 5397-A30
T1 sequence (P13612 34-977 limits assumed): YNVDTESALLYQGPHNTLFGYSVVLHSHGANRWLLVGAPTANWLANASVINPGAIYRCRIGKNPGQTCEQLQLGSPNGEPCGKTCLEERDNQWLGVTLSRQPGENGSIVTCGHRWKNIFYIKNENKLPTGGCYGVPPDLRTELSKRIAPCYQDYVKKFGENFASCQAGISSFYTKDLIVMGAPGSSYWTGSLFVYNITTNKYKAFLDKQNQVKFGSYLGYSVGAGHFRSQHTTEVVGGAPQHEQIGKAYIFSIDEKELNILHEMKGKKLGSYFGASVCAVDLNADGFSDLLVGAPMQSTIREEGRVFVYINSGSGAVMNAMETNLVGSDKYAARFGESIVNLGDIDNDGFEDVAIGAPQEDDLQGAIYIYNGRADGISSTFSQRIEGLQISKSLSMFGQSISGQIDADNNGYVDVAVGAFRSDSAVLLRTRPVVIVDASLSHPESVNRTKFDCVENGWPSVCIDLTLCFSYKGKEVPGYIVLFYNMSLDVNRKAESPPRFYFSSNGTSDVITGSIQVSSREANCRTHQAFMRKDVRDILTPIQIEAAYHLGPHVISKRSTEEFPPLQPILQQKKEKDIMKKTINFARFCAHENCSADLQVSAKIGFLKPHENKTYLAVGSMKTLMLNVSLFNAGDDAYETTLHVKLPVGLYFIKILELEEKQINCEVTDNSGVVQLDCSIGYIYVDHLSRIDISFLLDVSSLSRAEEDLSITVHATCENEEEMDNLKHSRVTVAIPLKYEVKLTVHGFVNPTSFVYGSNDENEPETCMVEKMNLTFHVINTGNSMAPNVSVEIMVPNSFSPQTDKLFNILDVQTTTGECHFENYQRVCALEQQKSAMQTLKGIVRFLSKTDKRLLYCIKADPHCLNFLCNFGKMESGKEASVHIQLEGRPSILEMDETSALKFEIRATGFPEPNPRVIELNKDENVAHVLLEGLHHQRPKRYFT
T1 sequence (P26010 20-723 limits assumed): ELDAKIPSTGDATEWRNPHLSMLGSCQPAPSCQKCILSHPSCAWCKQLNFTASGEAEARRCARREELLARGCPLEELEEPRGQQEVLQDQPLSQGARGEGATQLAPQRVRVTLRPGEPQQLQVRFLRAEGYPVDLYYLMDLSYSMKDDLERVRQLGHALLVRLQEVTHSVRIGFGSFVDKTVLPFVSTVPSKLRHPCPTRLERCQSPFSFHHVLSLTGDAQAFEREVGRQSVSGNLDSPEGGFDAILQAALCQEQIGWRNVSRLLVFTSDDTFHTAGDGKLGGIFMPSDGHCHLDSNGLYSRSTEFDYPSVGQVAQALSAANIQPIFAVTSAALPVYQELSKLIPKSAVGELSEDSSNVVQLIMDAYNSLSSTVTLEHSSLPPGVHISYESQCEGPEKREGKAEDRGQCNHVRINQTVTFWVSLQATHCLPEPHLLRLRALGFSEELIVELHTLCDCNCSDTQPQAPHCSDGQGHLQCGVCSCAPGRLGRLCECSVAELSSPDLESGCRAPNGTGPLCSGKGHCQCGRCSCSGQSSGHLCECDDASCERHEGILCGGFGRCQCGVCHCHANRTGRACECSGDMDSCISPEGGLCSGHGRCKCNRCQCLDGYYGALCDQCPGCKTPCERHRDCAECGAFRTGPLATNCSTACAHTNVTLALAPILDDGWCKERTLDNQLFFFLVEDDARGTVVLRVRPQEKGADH
Assay: α4β7-MAdCAM Competition ELISA
Type: binding
Conditions: thioether peptide dimers, Table 7; read-out: ELISA A4B7
How it was run: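 Recombinant human α4β7 captured on nickel-coated plates, then incubated 1 h at room temperature with serially diluted peptides (final top 10 μM) and 10 nM final MAdCAM-1 in Tris pH 7.6 buffer with 1 mM MnCl2 or MgCl2. Bound MAdCAM-1 detected with anti-human IgG1-HRP and TMB, absorbance at 450 nm.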

CC(C)C[C@@H]1NC(=O)[C@H]([C@@H](C)O)NC(=O)[C@H](CC(=O)O)NC(=O)[C@H](CO)NC(=O)[C@H](CCCNC(=N)N)N(C)C(=O)c2ccccc2CSC(C)(C)[C@@H](C(=O)N[C@@H](Cc2c[nH]c3ccccc23)C(=O)N[C@H](CCC(=O)O)C(=O)N[C@H](CCCCNC(=O)COCC(=O)NCCCC[C@@H](NC(=O)[C@@H](CCC(=O)O)NC(=O)[C@H](Cc2c[nH]c3ccccc23)NC(=O)[C@H]2NC(=O)[C@H](CC(C)C)NC(=O)[C@H]([C@@H](C)O)NC(=O)[C@H](CC(=O)O)NC(=O)[C@H](CO)NC(=O)[C@H](CCCNC(=N)N)N(C)C(=O)c3ccccc3CSC2(C)C)C(=O)O)C(=O)O)NC1=O [compound 209] (I: [NMeR]SDTL[Pen]W[dE][dK]-OH / II: [NMeR]SDTL[Pen]W[dE][dK]-OH; linker I:9-II:9 via Diglycolyl; linker I:N-I:6, II:N-II:6 via X1)
IC50: < 25 nM
